Test results reported in US9023789B2, “Amylin analogs and pharmaceutical compositions thereof” (Novo Nordisk A/S, priority 2012, dated 2015).
Numbered stars: 1 amine (or outer) side, 2 acyl side, 3 side chain; on linkers, the order of the positions; unused ones are H or OH. Bridge positions count the residues as written; N and C are the ends. Side chains are listed from the residue outwards. Peptide text beside a SMILES is read from it. * marks the point of attachment. C20 diacid = O=C(O)CCCCCCCCCCCCCCCCCCC(=O)*; γGlu = O=C(O)[C@H](CCC(=O)[*:2])N[*:1]

Tests used:
Sprague Dawley (SD) rats = test: ASSAY (I) efficacy testing on appetite (food intake) using an ad libitum fed rat model; assay type: in vivo; conditions: rat, 30 nmol/kg
Method in brief: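 Individual food consumption was logged each hour up to 7 h and again at 24 h, occasionally 48 h, with Grubbs-test outliers removed. Each 200–250 g Sprague Dawley rat, free-feeding in its home cage under reversed lighting, received a single ip, po or sc dose of 0.01–3 mg/kg at lights-off, alongside a vehicle group.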

[1] = biological target: T1, human amylin 3(a) receptor (human calcitonin receptor + RAMP-3) in BHK570 cells (Homo sapiens, UniProt O60896+P30988); test: ASSAY (II)a functional assay, human amylin receptor (CRE luciferase); assay type: cell-based; conditions: for EC50: human amylin receptor functional potency, assay (II), read-out: hAmylin-R funct. EC50
T1 construct: expressed in transfected cells
Method in brief: (§1)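 Functional agonism was measured by CRE-luciferase reporter luminescence in BHK cells bearing calcitonin receptor, or calcitonin receptor plus RAMP-3 as the amylin 3(a) receptor. Stimulation lasted 3 hours at 37° C.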

[2] = biological target: T2, human calcitonin (a) receptor in BHK570 cells (Homo sapiens, UniProt P30988); test: ASSAY (II)a functional assay, human calcitonin receptor (CRE luciferase); assay type: cell-based; conditions: read-out: hCTR funct. EC50
T2 construct: expressed in transfected cells
T2 sequence (P30988 25-474): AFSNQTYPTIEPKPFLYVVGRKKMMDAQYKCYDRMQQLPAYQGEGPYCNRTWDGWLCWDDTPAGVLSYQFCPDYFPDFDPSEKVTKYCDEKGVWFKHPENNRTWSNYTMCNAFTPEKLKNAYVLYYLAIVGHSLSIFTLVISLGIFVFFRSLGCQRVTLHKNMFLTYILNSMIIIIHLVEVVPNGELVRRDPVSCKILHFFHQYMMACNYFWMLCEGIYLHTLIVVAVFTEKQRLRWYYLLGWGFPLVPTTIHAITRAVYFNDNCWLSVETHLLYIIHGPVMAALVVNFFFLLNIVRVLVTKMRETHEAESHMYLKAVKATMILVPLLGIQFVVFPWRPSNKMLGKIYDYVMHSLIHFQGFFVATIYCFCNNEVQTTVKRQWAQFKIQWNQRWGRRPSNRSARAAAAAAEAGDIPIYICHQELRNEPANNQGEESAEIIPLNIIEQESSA
Method in brief: as §1

[3] = biological target: T3, human amylin receptor (membranes from Amylin 3(a)/CRE-luc cells) (Homo sapiens, UniProt O60896+P30988); test: ASSAY (V) binding to the human amylin receptor (SPA, 125I-rat amylin); conditions: for IC50: Table 4, read-out: hAmylin-R bind IC50;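 on all read-outs here: competition binding of cell membranes (35 ng/µL) mixed with SPA beads in 384-well plates at 40 µL total volume, read by scintillation counting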
T3 construct: expressed in transfected cells
T3 sequence (P30988 25-474): T2 sequence (P30988 25-474)
T3 sequence (O60896 24-148 partner): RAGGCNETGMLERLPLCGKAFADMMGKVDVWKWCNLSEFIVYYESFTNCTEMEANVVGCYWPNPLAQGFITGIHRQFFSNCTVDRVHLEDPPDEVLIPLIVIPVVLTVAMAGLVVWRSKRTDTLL

rat calcitonin receptor = biological target: T4, rat calcitonin receptor (Rattus norvegicus, UniProt P32214); test: ASSAY (VIII) binding to the rat calcitonin receptor; conditions: Table 7, read-out: rCTR bind IC50
T4 construct: expressed in transfected cells; host or cells: BHK tk'ts 13 (transient, FuGENE 6), membranes
T4 sequence (P32214 25-479 isoform P32214-2 limits assumed): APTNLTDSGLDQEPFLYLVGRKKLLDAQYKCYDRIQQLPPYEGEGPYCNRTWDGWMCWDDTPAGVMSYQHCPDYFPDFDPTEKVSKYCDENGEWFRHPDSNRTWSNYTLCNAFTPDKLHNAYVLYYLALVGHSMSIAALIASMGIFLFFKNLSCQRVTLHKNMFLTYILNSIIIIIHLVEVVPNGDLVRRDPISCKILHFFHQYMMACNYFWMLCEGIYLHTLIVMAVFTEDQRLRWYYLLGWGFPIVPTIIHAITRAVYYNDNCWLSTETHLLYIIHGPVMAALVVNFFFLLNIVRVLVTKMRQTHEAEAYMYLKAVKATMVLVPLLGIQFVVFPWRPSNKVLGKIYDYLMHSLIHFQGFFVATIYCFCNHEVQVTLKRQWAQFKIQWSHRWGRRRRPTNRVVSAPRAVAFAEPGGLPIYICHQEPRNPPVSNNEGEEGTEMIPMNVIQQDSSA
Method in brief: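 BHK tk′ts 13 cells, transient rat calcitonin receptor transfection; DMEM + 10% FBS; harvest ~48 h post-transfection; membrane prep.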

[4] = hCTR funct. EC50 divided by hAmylin-R funct. EC50
[5] = hCTR funct. EC50 over hAmylin-R funct. EC50
[6] = human functional selectivity: hCTR funct. EC50 / hAmylin-R funct. EC50
[7] = Table 5, selectivity, hCTR bind IC50 / hAmylin-R bind IC50
[8] = Table 5a, selectivity, hCTR bind IC50 / hAmylin-R bind IC50
[9] = Table 5b, selectivity, hCTR bind IC50 / hAmylin-R bind IC50
[10] = Table 5c, selectivity, hCTR bind IC50 / hAmylin-R bind IC50
[11] = Table 7, human binding selectivity, included for comparison
[12] = Table 7a (preferred compounds), human binding selectivity, included for comparison
[13] = ratio of human calcitonin receptor binding IC50 to human amylin receptor binding IC50

| Structure (SMILES) | Food intake reduction 0-24 h 30 nmol/kg (%) (Sprague Dawley (SD) rats) | Food intake reduction 24-48 h 30 nmol/kg (%) (Sprague Dawley (SD) rats) | Ratio hCT/hAmylin funct. [1, 4] | Ratio hCT/hAmylin funct. [1, 5] | EC50 [1] [nM] | Ratio hCT/hAmylin funct. [1, 6] | EC50 [2] [nM] | IC50 [3] [nM] | Ratio hCT/hAmylin binding [3, 7] | Ratio hCT/hAmylin binding [3, 8] | Ratio hCT/hAmylin binding [3, 9] | Ratio hCT/hAmylin binding [3, 10] | Ratio hCT/hAmylin binding [3, 11] | Ratio hCT/hAmylin binding [3, 12] | Ratio hCT/hAmylin binding [3, 13] | IC50 (rat calcitonin receptor) [nM] |
| --- | --- | --- | --- | --- | --- | --- | --- | --- | --- | --- | --- | --- | --- | --- | --- | --- |
| CC[C@H](C)[C@H](NC(=O)[C@H](C)NC(=O)CNC(=O)[C@H](Cc1ccccc1)NC(=O)[C@H](CC(N)=O)NC(=O)[C@@H]1CCCN1C(=O)[C@H](CO)NC(=O)[C@H](CO)NC(=O)[C@H](Cc1c[nH]cn1)NC(=O)[C@H](CCCNC(=N)N)NC(=O)[C@H](CC(C)C)NC(=O)[C@H](Cc1ccccc1)NC(=O)[C@H](CCC(=O)O)NC(=O)[C@H](C)NC(=O)[C@H](CC(C)C)NC(=O)[C@H](CCCNC(=N)N)NC(=O)[C@H](CCC(N)=O)NC(=O)[C@@H](NC(=O)[C@H](C)NC(=O)[C@@H]1CSSC[C@H](NC(=O)[C@@H](N)CCCCNC(=O)CC[C@H](NC(=O)CCCCCCCCCCCCCCCCCCC(=O)O)C(=O)O)C(=O)N[C@@H](CC(N)=O)C(=O)N[C@@H]([C@@H](C)O)C(=O)N[C@@H](C)C(=O)N[C@@H]([C@@H](C)O)C(=O)N1)[C@@H](C)O)C(=O)N1CCC[C@H]1C(=O)N[C@@H](CO)C(=O)N[C@@H](CO)C(=O)N[C@H](C(=O)N[C@@H](CC(N)=O)C(=O)N[C@H](C(=O)NCC(=O)N[C@@H](CCCNC(=N)N)C(=O)N[C@@H](CCC(=O)O)C(=O)N[C@H](C(=O)N[C@@H](Cc1ccc(O)cc1)C(N)=O)[C@@H](C)O)C(C)C)[C@@H](C)O [Example 108] (H-K([γGlu-C20 diacid])CNTATCATQRLAEFLRHSSPNFGAIPSSTNVGRETY-NH2; disulfide 2-7; N-terminus assumed) | 29 | 0 | 6.5 | 6.5 | 0.421 | 6.5 | 2.75 | 0.232 | 28.5 | 28.5 | 28.5 | 28.5 | 28.5 | 28.5 | 28.5 | 86.1 |
| CC[C@H](C)[C@H](NC(=O)[C@H](C)NC(=O)CNC(=O)[C@H](Cc1ccccc1)NC(=O)[C@H](CC(N)=O)NC(=O)[C@@H]1CCCN1C(=O)[C@H](CO)NC(=O)[C@H](CO)NC(=O)[C@H](Cc1c[nH]cn1)NC(=O)[C@H](CCCNC(=N)N)NC(=O)[C@H](CC(C)C)NC(=O)[C@H](Cc1ccccc1)NC(=O)[C@H](CCC(=O)O)NC(=O)[C@H](C)NC(=O)[C@H](CC(C)C)NC(=O)[C@H](CCCNC(=N)N)NC(=O)[C@H](CCC(N)=O)NC(=O)[C@@H](NC(=O)[C@H](C)NC(=O)[C@@H]1CSSC[C@H](NC(=O)[C@@H](N)CCCCNC(=O)CC[C@H](NC(=O)CC[C@H](NC(=O)CCCCCCCCCCCCCCCCCCC(=O)O)C(=O)O)C(=O)O)C(=O)N[C@@H](CC(N)=O)C(=O)N[C@@H]([C@@H](C)O)C(=O)N[C@@H](C)C(=O)N[C@@H]([C@@H](C)O)C(=O)N1)[C@@H](C)O)C(=O)N1CCC[C@H]1C(=O)N[C@@H](CO)C(=O)N[C@@H](CO)C(=O)N[C@H](C(=O)N[C@@H](CC(N)=O)C(=O)N[C@H](C(=O)NCC(=O)N1CCC[C@H]1C(=O)N[C@@H](CCCNC(=N)N)C(=O)N[C@H](C(=O)N[C@@H](Cc1ccc(O)cc1)C(N)=O)[C@@H](C)O)C(C)C)[C@@H](C)O [Example 110] (H-K([γGlu-γGlu-C20 diacid])CNTATCATQRLAEFLRHSSPNFGAIPSSTNVGPRTY-NH2; disulfide 2-7) | 68 | 31 | 29.3 | 29.3 | 0.278 | 29.3 | 8.16 | 0.326 | 53.6 | 53.6 | 53.6 | 53.6 | 53.6 | 53.6 | 53.6 | 38.3 |
| CC[C@H](C)[C@H](NC(=O)[C@H](C)NC(=O)CNC(=O)[C@H](Cc1ccccc1)NC(=O)[C@H](CC(N)=O)NC(=O)[C@@H]1CCCN1C(=O)[C@H](CO)NC(=O)[C@H](CO)NC(=O)[C@H](Cc1c[nH]cn1)NC(=O)[C@H](CCCNC(=N)N)NC(=O)[C@H](CC(C)C)NC(=O)[C@H](Cc1ccccc1)NC(=O)[C@H](CO)NC(=O)[C@H](C)NC(=O)[C@H](CC(C)C)NC(=O)[C@H](CCCNC(=N)N)NC(=O)[C@H](CCC(N)=O)NC(=O)[C@@H](NC(=O)[C@H](C)NC(=O)[C@@H]1CSSC[C@H](NC(=O)[C@@H](N)CCCCNC(=O)CC[C@H](NC(=O)CC[C@H](NC(=O)CCCCCCCCCCCCCCCCCCC(=O)O)C(=O)O)C(=O)O)C(=O)N[C@@H](CC(N)=O)C(=O)N[C@@H]([C@@H](C)O)C(=O)N[C@@H](C)C(=O)N[C@@H]([C@@H](C)O)C(=O)N1)[C@@H](C)O)C(=O)N1CCC[C@H]1C(=O)N[C@@H](CO)C(=O)N[C@@H](CO)C(=O)N[C@H](C(=O)N[C@@H](CC(N)=O)C(=O)N[C@H](C(=O)NCC(=O)N1CCC[C@H]1C(=O)N[C@@H](CCC(=O)O)C(=O)N[C@H](C(=O)N[C@@H](Cc1ccc(O)cc1)C(N)=O)[C@@H](C)O)C(C)C)[C@@H](C)O [Example 120] (H-K([γGlu-γGlu-C20 diacid])CNTATCATQRLASFLRHSSPNFGAIPSSTNVGPETY-NH2; disulfide 2-7 (inferred); N-terminus assumed) | 66 | 61 | 8.1 | 8.1 | 0.109 | 8.1 | 0.887 | 0.076 | 45.3 | 45.3 | 45.3 | 45.3 | 45.3 | 45.3 | 45.3 | 140 |
